# Measured values from patent US20250034139A1, “AMINE COMPOUNDS HAVING ANTI-INFLAMMATORY, ANTIFUNGAL, ANTIPARASITIC, AND ANTICANCER ACTIVITY” (PHARMA CINQ, LLC, priority 2013, published 2025).
# Read-outs that look alike come from different tables or passages of the source.
# How the values were obtained:
# [1] = tested on: THP-1 cells; test: Example D: LPS-triggered THP-1 cell death assay, acute/5-hour and chronic/48-hour; assay type: cell-based, Human; settings: for Viable cell percent change, Chronic/48-hour, Mean: 10 ng/ml LPS, 0.1 μM test compound; for activity relative to AC in the LPS-triggered THP-1 cell death assay, in words: 0.1 μM, 5-hour and 48-hour time points
# Protocol: Compounds of the invention were tested at 0.1 μM versus AC in the LPS-triggered THP-1 cell death assay. Both acute/5-hour and chronic/48-hour phases of cell death were assessed. Compounds were screened in batches with DMSO as the negative control and AC as the high activity control.
# [2] = tested on: Trichophyton rubrum; test: Example J: Trichophyton rubrum growth inhibition, scoring by eye; assay type: cell-based; settings: Trichophyton rubrum, 144 h; 6 days at 30° C., tested 6 to 40 μM; read-out: MIC, μM (maximum inhibition concentration, scoring by eye)
# Summary of the method: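 Filtered T. rubrum suspension from PDA plates (grown 4 days, 30 °C) treated with diluted compounds in triplicate, incubated 6 days at 30 °C. Plates imaged; MIC scored by eye.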
# [3] = tested on: THP-1 cells; test: Example C: compound screen, viable THP-1 cell count after 5 hours +/- LPS; assay type: cell-based, Human; settings: for ability to inactivate pro-inflammatory THP-1 cells, in words (relative to benchmark AC): LPS-treated THP-1 cells
# Excerpt: Background: THP-1 is a human acute myeloid leukemia (AML) cell line that can be induced into a macrophage-like cell with vitamin-D3 (vit-D3). In the macrophage, LPS (lipopolysaccharide; endotoxin) stimulation of toll-like receptor 4 (TLR-4) leads to NF-κB activation and secretion of inflammatory cytokines but also the priming of programmed death pathways through RIP and Caspase 8. The balance of this complex regulatory network is dependent on highly specific kinases, enzymes that require ATP. Disruption of either cytosolic pH or ATP availability/energy level uncouples this control network and the can macrophage shift away from production of inflammatory cytokines towards a programmed death event, which has the net effect of limiting inflammatory damage.
# [4] = tested on: Trichophyton rubrum strains; test: Example N: MIC and MFC (CLSI) against Trichophyton rubrum; assay type: cell-based; settings: for MIC: read-out: MIC 100%, Range, incubated for 96 hrs, three clinical strains; for MFC: three clinical strains
# Protocol: (§1) The objective of this study was to determine the antifungal activity of eight experimental compounds against a representative panel of fungal isolates, including Candida albicans, C. glabrata, Cryptococcus neoformans, Trichophyton rubrum, Aspergillus fumigatus, and Rhizopus spp. Antifungal activity was measured by minimum inhibitory concentration (MIC) and minimum fungicidal concentration (MFC).
# (§2) Three recent clinical strains of each species, taken from the culture collection at the Center for Medical Mycology, Case Western University, were tested.
# (§3) Compounds in powder form were dissolved in DMSO. Serial dilutions of each compound were then prepared in RPMI-1640 in a range of […].
# (§4) MIC testing was performed according to the CLSI M27-A3 and M38-A2 standards for the susceptibility testing of yeasts and filamentous fungi, respectively (1, 2). Test isolates were subcultured from frozen slants onto potato dextrose agar plates (Trichophyton rubrum was subcultured onto oatmeal plates for conidia production) and checked for purity. Inocula were then prepared in RPMI-1640 (YNB for Cryptococcus) to a concentration of 0.5-2.5×10^3 colony-forming units (CFU)/ml or 0.4-5×10^4 conidia/ml for yeast and filamentous fungi, respectively.
# (§5) MFC determinations were performed according to the modifications previously described by Canton et al. and Ghannoum and Isham. (3, 4) Specifically, the total contents of each clear well from the MIC assay were subcultured onto potato dextrose agar. To avoid antifungal carryover, the aliquots were allowed to soak into the agar and then were streaked for isolation once dry, thus removing the cells from the drug source.
# [5] = tested on: PC3 human prostate cancer cells; test: Example S: in vitro anticancer screen, PC-3 cells, Wst1; assay type: cell-based; settings: Homo sapiens, PC-3; 0.4 μM, approximately 20 hours, Wst1; read-out: PC-3, percent of cancer cell survival relative to vehicle treated cells
# Summary of the method: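 PC-3 cells, 2×10^4 cells/well, exposed ~20 h to vehicle or compound at 0.4, 0.5 or 2.5 μM as specified per compound. Wst1 dye added for 2 h; absorbance 450 nm (reference 630 nm), triplicates. Values are percent cell survival versus vehicle-treated cells.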
# [6] = tested on: PC-3 prostate cancer cells; test: Example T: sensitisation of PC-3 cells to doxorubicin, oxaliplatin, paclitaxel or vincristine, Wst1; assay type: cell-based, human; settings: PC-3 cells, 72 hours; for viability at 0.4 µM: Homo sapiens, compound 0.4 μM alone, Wst1, vehicle = 100, read-out: No Chemo: percent cell survival; for Doxorubicin 3.5 μM: percent cell survival: compound 0.4 μM + doxorubicin 3.5 μM; for Doxorubicin 3.5 μM: percent cell survival / Oxaliplatin 100 μM: percent cell survival / Paclitaxel 50 μM: percent cell survival / Vincristine 100 nM: percent cell survival: chemotherapy agent alone normalized to 100%; for Oxaliplatin 100 μM: percent cell survival: compound 0.4 μM + oxaliplatin 100 μM; for Paclitaxel 50 μM: percent cell survival: compound 0.4 μM + paclitaxel 50 μM; for Vincristine 100 nM: percent cell survival: compound 0.4 μM + vincristine 100 nM
# [7] = tested on: Candida albicans strains; test: Example N: MIC and MFC (CLSI) against Candida albicans; assay type: cell-based; settings: Candida albicans, three clinical strains; for MIC: read-out: MIC 100%, Range
# Protocol: as §1, §2, §3, §4, §5
# [8] = tested on: Cryptococcus neoformans strains; test: Example N: MIC and MFC (CLSI) against Cryptococcus neoformans; assay type: cell-based; settings: Cryptococcus neoformans, three clinical strains; for MIC: read-out: MIC 100%, Range, incubated for 72 hrs
# Protocol: as §1, §2, §3, §4, §5
# [9] = tested on: Aspergillus fumigatus strains; test: Example N: MIC and MFC (CLSI) against Aspergillus fumigatus; assay type: cell-based; parameters: MIC at 50% inhibition: unit not given here; settings: for MIC50 / MIC: Aspergillus fumigatus; for MIC: read-out: MIC 100%
# Protocol: as §1, §2, §3, §4, §5
# [10] = tested on: 4T1 murine breast cancer cells; test: Example S: in vitro anticancer screen, 4T1 cells, Wst1; assay type: cell-based, mouse; settings: Mus musculus, 4T1, 18 h, 18 hr, Wst1; for viability at 1 µM: read-out: 4T1 1 μM, percent of cancer cell survival relative to vehicle treated cells; for viability at 5 µM: read-out: 4T1 5 μM, percent of cancer cell survival relative to vehicle treated cells
# Summary of the method: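 4T1 cells seeded at 1×10^4/well were exposed to compound at 1 μM or 5 μM for 18 hr after plating. Wst1 tetrazolium dye was then added for about 2 hr and absorbance read at 450 nm (reference 630 nm). Values are percent survival relative to vehicle-treated cells.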
MIC [2],MIC [4],MIC ([7]; 24 hr),MIC ([7]; 48 hr),MIC [8],Structure (SMILES),"Viable cell percent change, Chronic/48-hour, Mean [1]","activity relative to AC in the LPS-triggered THP-1 cell death assay, in words [1]","Reduction in viable THP-1 cell count (percent change) from 0 hours, Mean ± SE ([3]; Compound (0.1 μM), No LPS)","Reduction in viable THP-1 cell count (percent change) from 0 hours, Mean ± SE ([3]; Compound (0.1 μM), Plus LPS)","Reduction in viable THP-1 cell count (percent change) from 0 hours, Mean ± SE ([3]; Compound (1.0 μM), No LPS)","Reduction in viable THP-1 cell count (percent change) from 0 hours, Mean ± SE ([3]; Compound (1.0 μM), Plus LPS)","ability to inactivate pro-inflammatory THP-1 cells, in words (relative to benchmark AC) [3]",MFC [4],viability at 0.4 µM [5],viability at 0.4 µM [6],Doxorubicin 3.5 μM: percent cell survival [6],Oxaliplatin 100 μM: percent cell survival [6],Paclitaxel 50 μM: percent cell survival [6],Vincristine 100 nM: percent cell survival [6],MFC ([7]; 48 hr),also measured
18 µM,,,,,"c1ccc(Oc2cccc(CNc3ncnc4ccccc34)c2)cc1 [BM, N-(3-Phenoxybenzyl)quinazolin-4-amine]",29.97%,more active than AC at the chronic/48-hour time point,−3.96 ± 0.82%,−25.80 ± 3.26%,−4.18 ± 2.46%,−39.17 ± 2.18%,higher activity than the active benchmark compound AC,,,,,,,,,
6 µM,1 to 16 µg/mL,4 to 8 µg/mL,8 µg/mL,2 µg/mL,"CCCCCCOCCCCCCCCNc1ccnc2cc(Cl)ccc12 [AW, 7-Chloro-N-[8-(hexyloxy)octyl]quinolin-4-amine]",,,,,,,,8 to 16 µg/mL,38.2%,38.2%,59.5%,70%,51.3%,33.6%,8 to 32 µg/mL,MFC [8]: 2 to 8 µg/mL; MIC50 ([9]; 24 h): 2 to 4 µg/mL; MIC ([9]; 24 h): 4 to 8 µg/mL; MIC50 ([9]; 48 h): 8 µg/mL; MIC ([9]; 48 h): 16 µg/mL; viability at 1 µM [10]: 44.2%; viability at 5 µM [10]: 18%
6 µM,4 to 16 µg/mL,0.5 to 4 µg/mL,4 µg/mL,0.25 to 4 µg/mL,"COc1ccc(OCCCCCCCCNc2ncnc3ccccc23)cc1 [AE, N-[8-(4-Methoxyphenoxy)octyl]quinazolin-4-amine]",4.11%,equivalent activity to AC at both the 5-hour and 48-hour time points,,,,,,4 to 16 µg/mL,,,,,,,8 to 64 µg/mL,"MFC [8]: 1 to 8 µg/mL; MIC at 50% inhibition ([9]; 24 hrs): <0.12-0.5; MIC at 100% inhibition ([9]; 24 hrs): <0.12-1; MIC50 ([9]; 24 h): 0.12 to 0.5 µg/mL; MIC ([9]; 24 h): 0.12 to 1 µg/mL; MIC50 ([9]; 48 h): 0.5 to 2 µg/mL; MIC ([9]; 48 h): 1 to 4 µg/mL; MFC ([9]; range over Aspergillus fumigatus strains, in 48 hr): > 64 µg/mL"
> 40 µM,,,,,"c1ccc(Oc2cccc(CNc3ccnc4ccccc34)c2)cc1 [AF, N-(3-Phenoxybenzyl)quinolin-4-amine]",13.79%,more active than AC at the chronic/48-hour time point,−8.99 ± 2.00%,−27.32 ± 4.69%,−6.02 ± 2.31%,−44.82 ± 2.46%,higher activity than the active benchmark compound AC,,19.1%,19.1%,35%,32.4%,25.2%,22.6%,,viability at 1 µM [10]: 24.7%; viability at 5 µM [10]: 25.6%
